The assay concerns HLA-A*24. Put plainly: MHC binding assay, UV-ligand exchange with beta2m ELISA, HLA-A*24. Also on record: species or system human. The conditions noted are these: binding to HLA-A*24 ranged by peptide exchange yield (UV-ligand exchange, beta2m ELISA). From the text:
Candidate peptides for T cell based therapies according to the present invention were further tested for their MHC binding capacity (affinity). The individual peptide-MHC complexes were produced by UV-ligand exchange, where a UV-sensitive peptide is cleaved upon UV-irradiation, and exchanged with the peptide of interest as analyzed. Only peptide candidates that can effectively bind and stabilize the peptide-receptive MHC molecules prevent dissociation of the MHC complexes. To determine the yield of the exchange reaction, an ELISA was performed based on the detection of the light chain (ß2 m) of stabilized MHC complexes. The assay was performed as generally described in Rodenko et al. (Rodenko et al., 2006).
96 well MAXISorp plates (NUNC) were coated over night with 2 ug/ml streptavidin in PBS at room temperature, washed 4× and blocked for 1 h at 37° C. in 2% BSA containing blocking buffer. […] Peptide-MHC monomers of the UV-exchange reaction were diluted 100 fold in blocking buffer. Samples were incubated for 1 h at 37° C., washed four times, incubated with 2 ug/ml HRP conjugated anti-β2 m for 1h at 37° C., washed again and detected with TMB solution that is stopped with […]. Absorption was measured at 450 nm. Candidate peptides that show a high exchange yield (preferably higher than 50%, most preferred higher than 75%) are generally preferred for a generation and production of antibodies or fragments thereof, and/or T cell receptors or fragments thereof, as they show sufficient avidity to the MHC molecules and prevent dissociation of the MHC complexes.
On the technique in general: In an ELISA, binding on a coated surface is turned into a signal by an enzyme label.

For “207 (LYSDAFKFIVF; listed as Homo sapiens) [compound 207]”, the Peptide exchange result is given as “+++ (50%-75% = +++)”.
The same measure for “258 (AYAQLGYLL; listed as Homo sapiens) [compound 258]”: “+++ (50%-75% = +++)”; for “184 (IYSVGAFENF; listed as Homo sapiens) [compound 184]”: “++++ (>=75% = ++++)”; for “125 (VFSRDFGLLVF; listed as Homo sapiens) [compound 125]”: “+++ (50%-75% = +++)”.
As for “269 (QYPYLQAFF; listed as Homo sapiens) [compound 269]”, the entry is “+++ (50%-75% = +++)”.
As for “147 (LYLAFPLAF; listed as Homo sapiens) [compound 147]”, the Peptide exchange entry is “+++ (50%-75% = +++)”.
As for “117 (IYLSDLTYI; listed as Homo sapiens) [compound 117]”, the entry is “+++ (50%-75% = +++)”; as for “251 (VYTKALSSL; listed as Homo sapiens) [compound 251]”, “+++ (50%-75% = +++)”; as for “211 (VFKSEGAYF; listed as Homo sapiens) [compound 211]”, “++++ (>=75% = ++++)”.
In the case of “345 (EYNSDLHQFF; listed as Homo sapiens) [compound 345]”, the Peptide exchange result is “+++ (50%-75% = +++)”.
As for “298 (AYKSEVVYF; listed as Homo sapiens) [compound 298]”, the entry is “++++ (>=75% = ++++)”.
On to “385 (QYIEELQKF; listed as Homo sapiens) [compound 385]”, for which the Peptide exchange entry is “+++ (50%-75% = +++)”.
On to “219 (SYLKAVFNL; listed as Homo sapiens) [compound 219]”, for which the Peptide exchange entry is “+++ (50%-75% = +++)”.
In the case of “313 (KYTHFIQSF; listed as Homo sapiens) [compound 313]”, the Peptide exchange entry is listed as “++++ (>=75% = ++++)”.
As for “179 (TYIPVGLGRLL; listed as Homo sapiens) [compound 179]”, the entry is “+++ (50%-75% = +++)”; as for “245 (LYPQLFVVL; listed as Homo sapiens) [compound 245]”, “+++ (50%-75% = +++)”.
The same measure for “201 (GYNPNRVFF; listed as Homo sapiens) [compound 201]”: “+++ (50%-75% = +++)”; for “133 (KYLEDMKTYF; listed as Homo sapiens) [compound 133]”: “+++ (50%-75% = +++)”.
On to “260 (VYMNVMTRL; listed as Homo sapiens) [compound 260]”, for which the Peptide exchange entry is listed as “++++ (>=75% = ++++)”.
As for “347 (VYAEVNSL; listed as Homo sapiens) [compound 347]”, the entry is “+++ (50%-75% = +++)”.
As to “263 (RYILENHDF; listed as Homo sapiens) [compound 263]”, the Peptide exchange entry is “+++ (50%-75% = +++)”.
Turning to “273 (IYGEKLQFIF; listed as Homo sapiens) [compound 273]”, the Peptide exchange entry is recorded as “+++ (50%-75% = +++)”.
As for “97 (TYTFLKETF; listed as Homo sapiens) [compound 97]”, the entry is “++++ (>=75% = ++++)”.
As for “292 (FYPQIINTF; listed as Homo sapiens) [compound 292]”, the entry is “++++ (>=75% = ++++)”.
As for “127 (QYFTGNPLF; listed as Homo sapiens) [compound 127]”, the entry is “+++ (50%-75% = +++)”; as for “128 (VYPFDWQYI; listed as Homo sapiens) [compound 128]”, “++++ (>=75% = ++++)”.
On to “275 (KYGTLDVTF; listed as Homo sapiens) [compound 275]”, for which the Peptide exchange entry is recorded as “++++ (>=75% = ++++)”.
Take “378 (VYIAELEKI; listed as Homo sapiens) [compound 378]”: the Peptide exchange result was “+++ (50%-75% = +++)”.
The same measure for “200 (VFIHHLPQF; listed as Homo sapiens) [compound 200]”: “+++ (50%-75% = +++)”; for “118 (KYLNSVQYI; listed as Homo sapiens) [compound 118]”: “+++ (50%-75% = +++)”.
Consider “315 (FYIPHVPVSF; listed as Homo sapiens) [compound 315]”, for which the Peptide exchange result is listed as “+++ (50%-75% = +++)”.
The same measure for “241 (SYVKVLHHL; listed as Homo sapiens) [compound 241]”: “+++ (50%-75% = +++)”; for “308 (TFDGHGVFF; listed as Homo sapiens) [compound 308]”: “+++ (50%-75% = +++)”.
On to “371 (AYSHLRYVF; listed as Homo sapiens) [compound 371]”, for which the Peptide exchange result is “++ (20%-49% = ++)”.
The same measure for “342 (NYAFLHRTL; listed as Homo sapiens) [compound 342]”: “+++ (50%-75% = +++)”.
As for “379 (VFIAQGYTL; listed as Homo sapiens) [compound 379]”, the entry is “++++ (>=75% = ++++)”.
The same measure for “152 (KFFDDLGDELLF; listed as Homo sapiens) [compound 152]”: “++ (20%-49% = ++)”.
Regarding “366 (QYLELAHSL; listed as Homo sapiens) [compound 366]”, the Peptide exchange entry was “+++ (50%-75% = +++)”.
The same measure for “274 (KQLDIANYELF; listed as Homo sapiens) [compound 274]”: “++++ (>=75% = ++++)”; for “139 (IFGIFPNQF; listed as Homo sapiens) [compound 139]”: “+++ (50%-75% = +++)”; for “252 (AFGQETNVPLNNF; listed as Homo sapiens) [compound 252]”: “++++ (>=75% = ++++)”.
The same measure for “168 (RYLEAALRL; listed as Homo sapiens) [compound 168]”: “+++ (50%-75% = +++)”.
The same measure for “243 (SYLELANTL; listed as Homo sapiens) [compound 243]”: “+++ (50%-75% = +++)”; for “154 (VYGVPTPHF; listed as Homo sapiens) [compound 154]”: “++++ (>=75% = ++++)”; for “287 (IYNPNLLTASKF; listed as Homo sapiens) [compound 287]”: “+++ (50%-75% = +++)”.
For the substance “248 (AFPTFSVQL; listed as Homo sapiens) [compound 248]”, the Peptide exchange result is recorded as “++++ (>=75% = ++++)”.
The same measure for “257 (IFIDNSTQPLHF; listed as Homo sapiens) [compound 257]”: “+++ (50%-75% = +++)”; for “295 (SYLVIHERI; listed as Homo sapiens) [compound 295]”: “+++ (50%-75% = +++)”.
As for “194 (VYQSLSNSL; listed as Homo sapiens) [compound 194]”, the entry is “+++ (50%-75% = +++)”; as for “383 (RYKPGEPITF; listed as Homo sapiens) [compound 383]”, “+++ (50%-75% = +++)”; as for “170 (QYPFHVPLL; listed as Homo sapiens) [compound 170]”, “++++ (>=75% = ++++)”.
As for “317 (VFDTSIAQLF; listed as Homo sapiens) [compound 317]”, the entry is “+++ (50%-75% = +++)”; as for “212 (SYAPPSEDLF; listed as Homo sapiens) [compound 212]”, “++ (20%-49% = ++)”; as for “221 (KYIGNLDLL; listed as Homo sapiens) [compound 221]”, “++++ (>=75% = ++++)”.
As to “226 (MYLKLVQLF; listed as Homo sapiens) [compound 226]”, the Peptide exchange result is listed as “++ (20%-49% = ++)”.
As to “259 (YFIKSPPSQLF; listed as Homo sapiens) [compound 259]”, the Peptide exchange result is recorded as “++ (20%-49% = ++)”.
As to “262 (VYSSQFETI; listed as Homo sapiens) [compound 262]”, the Peptide exchange result was “++++ (>=75% = ++++)”.
The same measure for “159 (IYEETRGVL; listed as Homo sapiens) [compound 159]”: “+++ (50%-75% = +++)”.
As for “382 (AYLPPLQQVF; listed as Homo sapiens) [compound 382]”, the entry is “+++ (50%-75% = +++)”; as for “173 (QYLEKYYNL; listed as Homo sapiens) [compound 173]”, “++++ (>=75% = ++++)”.
“244 (VHFEDTGKTLLF; listed as Homo sapiens) [compound 244]”: the Peptide exchange entry was “+++ (50%-75% = +++)”.
For the substance “223 (TFITQSPLL; listed as Homo sapiens) [compound 223]”, the Peptide exchange result is recorded as “++++ (>=75% = ++++)”.
The same measure for “197 (IFTDIFHYL; listed as Homo sapiens) [compound 197]”: “++++ (>=75% = ++++)”.
The same measure for “215 (SYVASFFLL; listed as Homo sapiens) [compound 215]”: “++ (20%-49% = ++)”; for “300 (TYPSQLPSL; listed as Homo sapiens) [compound 300]”: “+++ (50%-75% = +++)”; for “230 (TYGMVMVTF; listed as Homo sapiens) [compound 230]”: “+++ (50%-75% = +++)”.
